# From patent publication US8367873B2, “Phenyl-substituted bicyclooctane-1,3-dione derivatives” (Bayer Cropscience AG, priority 2008, dated 2013)
# Key:
# Format in all cases: in vivo
# Alopecurus myosuroides [1] = test: Herbicidal pre-emergence action; conditions: pre-emergence method, 80 g/ha, greenhouse, visual assessment vs untreated controls
# Method in brief: (§1)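 Visual percent damage score (100% = dead plants, 0% = as untreated control) taken three weeks after pre-emergence treatment. Compounds were wettable powders sprayed onto covering soil over seeds in sandy loam, 600 l/ha water with 0.2% wetting agent, several application amounts; pots kept in greenhouse.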
# Echinocloa crus-galli [2] = test: Herbicidal pre-emergence action; conditions: pre-emergence method, 80 g/ha, greenhouse, visual assessment vs untreated controls
# Method in brief: as §1
# Lolium multiflorum [3] = test: Herbicidal pre-emergence action; conditions: pre-emergence method, 80 g/ha, greenhouse, visual assessment vs untreated controls
# Method in brief: as §1
# Setaria viridis [4] = test: Herbicidal pre-emergence action; conditions: pre-emergence method, 80 g/ha, greenhouse, visual assessment vs untreated controls
# Method in brief: as §1
# Alopecurus myosuroides [5] = test: Herbicidal post-emergence action; conditions: post-emergence method, 80 g/ha
# Method in brief: (§2)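 Post-emergence spray test: wettable-powder formulations are applied at different amounts to one-leaf-stage plants in 600 l/ha water containing 0.2% wetting agent. After roughly three weeks in the greenhouse, percent effect is rated visually relative to untreated controls.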
# Echinocloa crus-galli [6] = test: Herbicidal post-emergence action; conditions: post-emergence method, 80 g/ha
# Method in brief: as §2
# Lolium multiflorum [7] = test: Herbicidal post-emergence action; conditions: post-emergence method, 80 g/ha
# Method in brief: as §2
# Setaria viridis [8] = test: Herbicidal post-emergence action; conditions: post-emergence method, 80 g/ha
# Method in brief: as §2
# [9] = tested on: monocotylidonous and dicotylidonous weed and crop plants; test: Herbicidal pre-emergence action (other test plants); conditions: pre-emergence method, 80 g/ha, greenhouse, visual assessment vs untreated controls
# Method in brief: as §1
# [10] = tested on: monocotylidonous and dicotylidonous weed and crop plants; test: Herbicidal post-emergence action (other test plants); conditions: post-emergence method, 80 g/ha
# Method in brief: as §2
Compound,herbicidal effect ALOMY (Alopecurus myosuroides [1]),herbicidal effect ECHCG (Echinocloa crus-galli [2]),herbicidal effect LOLMU (Lolium multiflorum [3]),herbicidal effect SETVI (Setaria viridis [4]),herbicidal effect against ALOMY (Alopecurus myosuroides) (Alopecurus myosuroides [5]),herbicidal effect against ECHCG (Echinochloa crus-galli) (Echinocloa crus-galli [6]),herbicidal effect against LOLMU (Lolium multiflorum) (Lolium multiflorum [7]),herbicidal effect against SETVI (Setaria viridis) (Setaria viridis [8]),herbicidal effect AVEFA [9],herbicidal effect against AVEFA (Avena fatua) [10]
CCOC(=O)OC1=C(c2c(CC)cc(C)cc2CC)C(=O)C2CC3(CC12)OCC(C)(C)CO3 (centres unmarked) [I-c-22],100%,100%,100%,100%,100%,100%,100%,100%,70%,100%
CCc1cc(C)cc(CC)c1C1=C(OC(=O)OC)C2CC3(CC2C1=O)OCC(C)(C)CO3 (centres unmarked) [I-c-23],100%,100%,100%,100%,100%,100%,100%,100%,70%,100%
CCOC(=O)OC1=C(c2c(CC)cc(C)cc2CC)C(=O)C2CC3(CC12)OCC(OC)CO3 (centres unmarked) [I-c-25],100%,100%,100%,80%,100%,100%,100%,100%,90%,100%
CCOC(=O)OC1=C(c2c(CC)cc(C)cc2CC)C(=O)C2CC3(CC12)OCC(OCC)CO3 (centres unmarked) [I-c-26],100%,100%,100%,100%,100%,100%,100%,100%,80%,100%
CCOC1COC2(CC3C(=O)C(c4c(CC)cc(C)cc4CC)=C(OC(=O)OC)C3C2)OC1 (centres unmarked) [I-c-27],100%,100%,100%,90%,100%,100%,100%,100%,80%,100%
CCc1cc(C)cc(CC)c1C1=C(OC(=O)OC(C)C)C2CC3(CC2C1=O)OCCCO3 (centres unmarked) [I-c-34],90%,100%,100%,80%,100%,100%,100%,90%,60%,100%
CCOC(=O)OC1=C(c2c(CC)cc(C)cc2CC)C(=O)C2CC(=NOCC3CC3)CC12 (centres unmarked) [I-c-40],80%,0%,80%,40%,100%,100%,100%,100%,60%,0%
C#CCON=C1CC2C(=O)C(c3c(CC)cc(C)cc3CC)=C(OC(=O)OCC)C2C1 (centres unmarked) [I-c-41],90%,60%,100%,40%,100%,100%,100%,20%,40%,80%
C#CC(C)ON=C1CC2C(=O)C(c3c(CC)cc(C)cc3CC)=C(OC(=O)OCC)C2C1 (centres unmarked) [I-c-43],80%,80%,80%,0%,100%,100%,100%,0%,40%,0%
CCOC(=O)OC1=C(c2c(C)cc(C)cc2C)C(=O)C2CC3(CC12)OCCO3 (centres unmarked) [I-c-44],50%,0%,100%,0%,40%,100%,100%,90%,50%,80%
CCc1cc(C)cc(CC)c1C1=C([O-])C2CC3(CC2C1=O)OC(C)CC(C)O3.[Na+] (centres unmarked) [I-f-2],90%,90%,100%,60%,80%,100%,100%,90%,50%,90%
